One test concerns the target T1, rOT7T022L (Rattus norvegicus, UniProt Q9EP86).
T1 construct: expressed in transfected cells
As to the kind of experiment: Site sensor (Cytosensor) acidification rate in rOT7T022L receptor-expressing CHO cells. It counts as cell-based. The conditions noted are these: peptide exposed to cells for 7 minutes and 2 seconds; FIG. 8. On the procedure:
The rOT7T022L receptor-expressing CHO cells obtained in Example 7 (2) above were inoculated on capsules for site sensor in 2.7×10^5 cells/capsule. After incubation overnight, the site sensor was mounted to a workstation for the site sensor. A medium for assay (low buffered RMP11640 medium supplemented with 0.1% bovine serum albumin), which was set in the flow path of the site sensor, was supplied to the cells in a pump cycle of ON (80 seconds) and OFF (40 seconds). A rate of change in […] from 8 to 30 seconds after the pump stopped was calculated as an acidification rate. A change of the acidification rate with passage of time was monitored; when stable reading was obtained, the flow path was switched to expose each peptide to the cells for 7 minutes and 2 seconds. In the acidification rate of each well, the data for 3 cycles immediately before the peptide exposure was made 100% for standardization.

The test system of test [1] is pituitary hormone level in plasma. Put plainly: Pituitary hormone level in plasma after administration into the third ventricle. It is filed as in vivo, Wistar rats. The conditions noted are these: for plasma prolactin level: vs PBS control. How it is done:
The effect of the peptide shown by SEQ ID NO: 39 administered into the third ventricle on pituitary hormone level in plasma, was explored. Mature male Wistar rats (body weights at operation: about 290-350 g) were anesthetized with 50 mg/kg of pentobarbital, i.p., and each rat was immobilized in a rat brain stereotaxic apparatus. The incisor bar was set 3.3 mm lower from the interaural line. The skull was exposed, and using a dental drill a hole was made on the bone for implantation of a guide cannula.
In addition, an anchor screw was buried in one position around the hole. A stainless-steel guide cannula, AG-12 (0.4 mm inner diameter, 0.5 mm outer diameter, EICOM Co., Ltd.), was inserted in such a manner that its tip would be situated in the upper part of the third ventricle. Following the atlas of Paxinos and Watson (1986), the stereotaxic coordinates were set to AP: +7.2 mm (from the interaural line), L: 0.0 mm, and H: +2.0 mm (from the interaural line). The guide cannula was secured to the skull using instant adhesive, dental cement and an anchor screw. A stainless-steel dummy cannula, AD-12 (0.35 mm outer diameter, EICOM Co., Ltd.), was then passed through the guide cannula and locked in position with a cap nut (EICOM Co., Ltd.). After the operation the rats were housed in individual cages and kept for at least a week for postoperative recuperation before starting the experiment.
The operated rat was anesthetized with 50 mg/kg of pentobarbital, i.p., and immobilized in the dorsal position on a necropsy pad. A catheter (SP35, Natsume Seisakusho Co., Ltd.) was inserted into the right jugular vein. On the following day, 400 μl of blood was drawn through the jugular vein catheter. To prevent clotting, a syringe was filled beforehand with 20 μl of saline containing 200 U/ml of heparin. The cap nut and dummy cannula were removed from the rat skull and instead, a stainless steel microinjection cannula AMI13 (0.17 mm inner diameter, 0.35 mm outer diameter, EICOM Co., Ltd.) connected to a Teflon tube (50 cm long, 0.1 mm inner diameter, 0.4 mm outer diameter, EICOM Co., Ltd.) was inserted. The length of the microinjection cannula was adjusted beforehand so that its tip would be exposed from the guide cannula by 1 mm. One end of the Teflon tube was connected to a microsyringe pump and either PBS or the peptide shown by SEQ ID NO: 39 dissolved in PBS was injected, in a total volume of 10 μl, into the third ventricle at a flow rate of 5 μl/min. After a 1 minute standby time following the infusion, the microinjection cannula was disconnected and the dummy cannula was locked in position again with a cap nut. Immediately before the initiation of intraventricular administration and 10, 20, 30, 40, and 60 minutes after the initiation of administration, 400 μl aliquots of blood were collected via the cannula inserted into the jugular vein. Each blood sample collected was centrifuged (5,000 rpm, 10 min.) with a high-speed refrigerated microcentrifuge (MR-150, Tommy Seiko) and the supernatant (plasma) was recovered. The amount of prolactin in the plasma was determined by radioimmunoassay.
The results were shown in terms of a mean±S.E.M. To examine if there was a significant difference between the group administered with the peptide shown by SEQ ID NO: 39 dissolved in PBS and the control group administered with PBS alone, Student's t-test was used. According to the two-tailed test, the risk percentage of 5% or less was assumed to be statistically significant.

Another test deals with T2, Human 0T7T022 receptor (Homo sapiens, UniProt Q9GZQ6).
T2 construct: expressed in transfected cells; host or cells: CHO cells
T2 sequence (Q9GZQ6 whole entry): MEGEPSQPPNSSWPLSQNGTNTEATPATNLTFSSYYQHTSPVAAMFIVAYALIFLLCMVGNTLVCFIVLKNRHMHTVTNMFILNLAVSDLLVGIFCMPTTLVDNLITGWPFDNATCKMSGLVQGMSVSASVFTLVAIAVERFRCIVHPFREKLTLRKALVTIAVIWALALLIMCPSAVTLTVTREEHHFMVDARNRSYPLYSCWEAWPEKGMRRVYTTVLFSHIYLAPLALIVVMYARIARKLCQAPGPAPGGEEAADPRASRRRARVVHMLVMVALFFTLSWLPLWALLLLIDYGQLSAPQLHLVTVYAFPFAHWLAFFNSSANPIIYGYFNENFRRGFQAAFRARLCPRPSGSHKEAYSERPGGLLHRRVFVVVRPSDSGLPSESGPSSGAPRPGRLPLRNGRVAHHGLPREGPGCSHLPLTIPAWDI
Put plainly: Effect of pertussis toxin on cAMP production inhibiting activity in human 0T7T022 receptor-expressing CHO cells. It counts as cell-based. The conditions noted are these: 0.1 μM peptide, 1 μM forskolin, 100 ng/ml pertussis toxin overnight; FIG. 15. On the procedure:
Human 0T7T022 receptor-expressing CHO cells obtained in Example 21 were inoculated on a 24-well plate in a concentration of 1×10^5 cells/well. After culturing overnight, the medium was exchanged by a medium added with 100 ng/ml pertussis toxin (Sigma, Inc.) or with a control medium followed by further incubation overnight. The cells were rinsed with Hanks' buffer (HBSS) supplemented with 0.05% BSA and 0.2 mM IBMX and then preincubated at 37° C. for 30 minutes in the same buffer. Next, the cells were incubated at 37° C. for 30 minutes after the buffer was exchanged by Hanks' buffer alone (HBSS) supplemented with 0.05% BSA and 0.2 mM IBMX (black column), or by HBSS further added with 1 μM forskolin only (white column), or by HBSS added with 1 μM forskolin and 0.1 μM RFRP-1-12 (peptide having the 81 (Met) to 92 (Phe) amino acid sequence in SEQ ID NO: 1) (hatched column). After completion of the incubation, cAMP in the cells of each well was extracted and quantified according to the method of cAMP EIA Kit (Amersham, Inc.).

[2] abbreviates: 10 nmols into the third ventricle.

T1 sequence (Q9EP86 whole entry): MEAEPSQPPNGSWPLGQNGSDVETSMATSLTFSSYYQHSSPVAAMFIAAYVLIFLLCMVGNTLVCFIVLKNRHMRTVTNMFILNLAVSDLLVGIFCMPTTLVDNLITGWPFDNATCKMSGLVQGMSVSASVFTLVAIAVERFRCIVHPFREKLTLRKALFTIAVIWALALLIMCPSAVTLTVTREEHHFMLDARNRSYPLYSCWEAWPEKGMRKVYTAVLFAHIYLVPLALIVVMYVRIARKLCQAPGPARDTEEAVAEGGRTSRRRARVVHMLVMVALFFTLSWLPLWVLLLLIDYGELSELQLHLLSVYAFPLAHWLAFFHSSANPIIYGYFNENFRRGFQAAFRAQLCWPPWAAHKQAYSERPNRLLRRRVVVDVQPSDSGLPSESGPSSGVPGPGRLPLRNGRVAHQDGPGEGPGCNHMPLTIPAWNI

Consider H-MPHSFANLPLRF-NH2, for which the “reaction of rOT7T022L-expressing CHO cells (acidification rate)” value on rOT7T022L is reported as “strongly showed dose-dependent reaction”. The “level of ACTH in plasma” value in test [1] (setting [2]) was “none showed any significant change”. Also, the “level of GH in plasma” value in test [1] (setting [2]) is given as “none showed any significant change”. Further, the “level of LH in plasma” value in test [1] (setting [2]) was “none showed any significant change”. In addition, in test [1] (setting [2]), the “level of TSH in plasma” value was “none showed any significant change”. For the same compound, the plasma prolactin level entry was “tended to increase” in test [1] (10 minutes after 10 nmols into the third ventricle); “significantly increased” in test [1] (20 minutes after 10 nmols into the third ventricle); “significantly increased” in test [1] (30 minutes after 10 nmols into the third ventricle); “significantly increased” in test [1] (40 minutes after 10 nmols into the third ventricle); “a significant difference was noted” in test [1] (60 minutes after 10 nmols into the third ventricle). Also, on Human 0T7T022 receptor, the “cAMP production inhibiting activity in cells treated with pertussis toxin” value was “lost”.

Regarding `CC(C)C[C@H](NC(=O)[C@H](CC(N)=O)NC(=O)[C@@H]1CCCN1C(=O)[C@@H](N)C(C)C)C(=O)N1CCC[C@H]1C(=O)N[C@@H](CCC(N)=O)C(=O)N[C@@H](CCCNC(=N)N)C(=O)N[C@@H](Cc1ccccc1)C(N)=O`, on rOT7T022L, the “reaction of rOT7T022L-expressing CHO cells (acidification rate)” value is given as “strongly showed dose-dependent reaction”.

The values are drawn from patent publication US7662574B2, “Use of a G protein-coupled receptor and its cognizant ligand in the identification of compounds that affect prolactin secretion” (Takeda Pharmaceutical Company Limited, priority 1999, dated 2010).
